Molecular target: human α-thrombin (Homo sapiens, UniProt P00734)
Assay: Sub-library screen for active and permeable cyclic peptides (PAMPA plus thrombin inhibition)
Assay type: biochemical
Conditions: crude, slopes normalized to DMSO; for Residual thrombin activity: Top sample: PAMPA acceptor well after 14 h, 5 μM donor; for Residual thrombin activity: Equilibrated sample: donor sample diluted to theoretical equilibrium (1 μM in assay)
Summary of the method: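 Acylated cyclic peptides at 5 μM in PBS pH 7.4 with 5% DMSO were run through PAMPA for 14 h at room temperature. Acceptor wells and a diluted donor sample at 3 μM, representing maximum permeability, were preincubated 10 min with human α-thrombin (6 nM stock). Z-Gly-Gly-Arg-AMC (150 μM stock) fluorescence was then read for 30 min at 25 °C, and inhibition was taken against a no-peptide control.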

Residual thrombin activity: Top sample | Residual thrombin activity: Equilibrated sample | Compound
97.6 | 73.7 | Cc1cccc(C[C@@H]2NC(=O)[C@@H](NC(=O)c3ccc(Cl)s3)CCSCCS(=O)(=O)CCSCCNC(=O)C[C@H]3CCCN3C2=O)c1 [C2-X37-L2]
100.6 | 94.8 | Cc1cccc(C[C@@H]2NC(=O)[C@@H](NC(=O)c3ccc(Cl)s3)CCSCc3ccc(cc3)CSCCNC(=O)C[C@H]3CCCN3C2=O)c1 [C2-X37-L3]
90.6 | 77.5 | Cc1cccc(C[C@@H]2NC(=O)[C@@H](NC(=O)c3ccc(Cl)s3)CCSC/C=C/CSCCNC(=O)C[C@H]3CCCN3C2=O)c1 [C2-X37-L4]
104.6 | 95.0 | Cc1cccc(C[C@@H]2NC(=O)[C@@H](NC(=O)c3ccc(Cl)s3)CCSCc3cccc(c3)CSCCNC(=O)C[C@H]3CCCN3C2=O)c1 [C2-X37-L5]
97.5 | 96.9 | Cc1cccc(C[C@@H]2NC(=O)[C@@H](NC(=O)c3ccc(Cl)s3)CCSCc3ccccc3CSCCNC(=O)C[C@H]3CCCN3C2=O)c1 [C2-X37-L6]
99.9 | 83.6 | Cc1cccc(C[C@@H]2NC(=O)[C@@H](NC(=O)c3ccc(Cl)s3)CCSCC(=O)CSCCNC(=O)C[C@H]3CCCN3C2=O)c1 [C2-X37-L7]
64.7 | 75.1 | O=C1C[C@H]2CCCN2C(=O)[C@H](Cc2ccccc2)NC(=O)[C@@H](NC(=O)c2ccc(Cl)s2)CCCSCc2cccc(n2)CSCCN1 [C3-X5-L1]
81.8 | 27.6 | O=C1C[C@H]2CCCN2C(=O)[C@H](Cc2ccccc2)NC(=O)[C@@H](NC(=O)c2ccc(Cl)s2)CCCSCCS(=O)(=O)CCSCCN1 [C3-X5-L2]
86.8 | 50.1 | O=C1C[C@H]2CCCN2C(=O)[C@H](Cc2ccccc2)NC(=O)[C@@H](NC(=O)c2ccc(Cl)s2)CCCSCc2ccc(cc2)CSCCN1 [C3-X5-L3]
55.8 | 36.8 | O=C1C[C@H]2CCCN2C(=O)[C@H](Cc2ccccc2)NC(=O)[C@@H](NC(=O)c2ccc(Cl)s2)CCCSC/C=C/CSCCN1 [C3-X5-L4]
84.2 | 60.5 | O=C1C[C@H]2CCCN2C(=O)[C@H](Cc2ccccc2)NC(=O)[C@@H](NC(=O)c2ccc(Cl)s2)CCCSCc2cccc(c2)CSCCN1 [C3-X5-L5]
74.4 | 55.6 | O=C1C[C@H]2CCCN2C(=O)[C@H](Cc2ccccc2)NC(=O)[C@@H](NC(=O)c2ccc(Cl)s2)CCCSCc2ccccc2CSCCN1 [C3-X5-L6]
73.4 | 33.5 | O=C1CSCCC[C@H](NC(=O)c2ccc(Cl)s2)C(=O)N[C@@H](Cc2ccccc2)C(=O)N2CCC[C@@H]2CC(=O)NCCSC1 [C3-X5-L7]
96.1 | 92.4 | O=C1C[C@H]2CCCN2C(=O)[C@@H](Cc2ccccc2)NC(=O)[C@@H](NC(=O)c2ccc(Cl)s2)CCCSCc2cccc(n2)CSCCN1 [C3-X31-L1]
103.5 | 93.7 | O=C1C[C@H]2CCCN2C(=O)[C@@H](Cc2ccccc2)NC(=O)[C@@H](NC(=O)c2ccc(Cl)s2)CCCSCCS(=O)(=O)CCSCCN1 [C3-X31-L2]
99.4 | 96.8 | O=C1C[C@H]2CCCN2C(=O)[C@@H](Cc2ccccc2)NC(=O)[C@@H](NC(=O)c2ccc(Cl)s2)CCCSCc2ccc(cc2)CSCCN1 [C3-X31-L3]
100.8 | 98.3 | O=C1C[C@H]2CCCN2C(=O)[C@@H](Cc2ccccc2)NC(=O)[C@@H](NC(=O)c2ccc(Cl)s2)CCCSC/C=C/CSCCN1 [C3-X31-L4]
105.2 | 103.4 | O=C1C[C@H]2CCCN2C(=O)[C@@H](Cc2ccccc2)NC(=O)[C@@H](NC(=O)c2ccc(Cl)s2)CCCSCc2cccc(c2)CSCCN1 [C3-X31-L5]
97.6 | 87.4 | O=C1C[C@H]2CCCN2C(=O)[C@@H](Cc2ccccc2)NC(=O)[C@@H](NC(=O)c2ccc(Cl)s2)CCCSCc2ccccc2CSCCN1 [C3-X31-L6]
102.1 | 99.4 | O=C1CSCCC[C@H](NC(=O)c2ccc(Cl)s2)C(=O)N[C@H](Cc2ccccc2)C(=O)N2CCC[C@@H]2CC(=O)NCCSC1 [C3-X31-L7]
99.5 | 98.5 | CN1C(=O)[C@@H](NC(=O)c2ccc(Cl)s2)CCCSCc2cccc(n2)CSCCNC(=O)C[C@H]2CCCN2C(=O)[C@@H]1Cc1ccccc1 [C3-X32-L1]

Residual thrombin activity: Top sample | Residual thrombin activity: Equilibrated sample | Compound
103.4 | 103.4 | CN1C(=O)[C@@H](NC(=O)c2ccc(Cl)s2)CCCSCCS(=O)(=O)CCSCCNC(=O)C[C@H]2CCCN2C(=O)[C@@H]1Cc1ccccc1 [C3-X32-L2]
101.7 | 98.3 | CN1C(=O)[C@@H](NC(=O)c2ccc(Cl)s2)CCCSCc2ccc(cc2)CSCCNC(=O)C[C@H]2CCCN2C(=O)[C@@H]1Cc1ccccc1 [C3-X32-L3]
101.4 | 100.1 | CN1C(=O)[C@@H](NC(=O)c2ccc(Cl)s2)CCCSC/C=C/CSCCNC(=O)C[C@H]2CCCN2C(=O)[C@@H]1Cc1ccccc1 [C3-X32-L4]
103.6 | 103.6 | CN1C(=O)[C@@H](NC(=O)c2ccc(Cl)s2)CCCSCc2cccc(c2)CSCCNC(=O)C[C@H]2CCCN2C(=O)[C@@H]1Cc1ccccc1 [C3-X32-L5]
99.5 | 96.0 | CN1C(=O)[C@@H](NC(=O)c2ccc(Cl)s2)CCCSCc2ccccc2CSCCNC(=O)C[C@H]2CCCN2C(=O)[C@@H]1Cc1ccccc1 [C3-X32-L6]
102.9 | 98.1 | CN1C(=O)[C@@H](NC(=O)c2ccc(Cl)s2)CCCSCC(=O)CSCCNC(=O)C[C@H]2CCCN2C(=O)[C@@H]1Cc1ccccc1 [C3-X32-L7]
99.7 | 94.6 | COc1ccc(C[C@@H]2NC(=O)[C@@H](NC(=O)c3ccc(Cl)s3)CCCSCc3cccc(n3)CSCCNC(=O)C[C@H]3CCCN3C2=O)cc1 [C3-X33-L1]
105.7 | 97.1 | COc1ccc(C[C@@H]2NC(=O)[C@@H](NC(=O)c3ccc(Cl)s3)CCCSCCS(=O)(=O)CCSCCNC(=O)C[C@H]3CCCN3C2=O)cc1 [C3-X33-L2]
102.2 | 103.1 | COc1ccc(C[C@@H]2NC(=O)[C@@H](NC(=O)c3ccc(Cl)s3)CCCSCc3ccc(cc3)CSCCNC(=O)C[C@H]3CCCN3C2=O)cc1 [C3-X33-L3]
105.1 | 97.8 | COc1ccc(C[C@@H]2NC(=O)[C@@H](NC(=O)c3ccc(Cl)s3)CCCSC/C=C/CSCCNC(=O)C[C@H]3CCCN3C2=O)cc1 [C3-X33-L4]
101.3 | 103.0 | COc1ccc(C[C@@H]2NC(=O)[C@@H](NC(=O)c3ccc(Cl)s3)CCCSCc3cccc(c3)CSCCNC(=O)C[C@H]3CCCN3C2=O)cc1 [C3-X33-L5]
95.1 | 92.6 | COc1ccc(C[C@@H]2NC(=O)[C@@H](NC(=O)c3ccc(Cl)s3)CCCSCc3ccccc3CSCCNC(=O)C[C@H]3CCCN3C2=O)cc1 [C3-X33-L6]
103.1 | 99.9 | COc1ccc(C[C@@H]2NC(=O)[C@@H](NC(=O)c3ccc(Cl)s3)CCCSCC(=O)CSCCNC(=O)C[C@H]3CCCN3C2=O)cc1 [C3-X33-L7]
99.1 | 94.7 | O=C1C[C@H]2CCCN2C(=O)[C@H](Cc2ccc(Cl)cc2)NC(=O)[C@@H](NC(=O)c2ccc(Cl)s2)CCCSCc2cccc(n2)CSCCN1 [C3-X34-L1]
98.4 | 94.5 | O=C1C[C@H]2CCCN2C(=O)[C@H](Cc2ccc(Cl)cc2)NC(=O)[C@@H](NC(=O)c2ccc(Cl)s2)CCCSCCS(=O)(=O)CCSCCN1 [C3-X34-L2]
101.2 | 96.4 | O=C1C[C@H]2CCCN2C(=O)[C@H](Cc2ccc(Cl)cc2)NC(=O)[C@@H](NC(=O)c2ccc(Cl)s2)CCCSCc2ccc(cc2)CSCCN1 [C3-X34-L3]
100.7 | 91.1 | O=C1C[C@H]2CCCN2C(=O)[C@H](Cc2ccc(Cl)cc2)NC(=O)[C@@H](NC(=O)c2ccc(Cl)s2)CCCSC/C=C/CSCCN1 [C3-X34-L4]
103.1 | 94.9 | O=C1C[C@H]2CCCN2C(=O)[C@H](Cc2ccc(Cl)cc2)NC(=O)[C@@H](NC(=O)c2ccc(Cl)s2)CCCSCc2cccc(c2)CSCCN1 [C3-X34-L5]
94.7 | 78.6 | O=C1C[C@H]2CCCN2C(=O)[C@H](Cc2ccc(Cl)cc2)NC(=O)[C@@H](NC(=O)c2ccc(Cl)s2)CCCSCc2ccccc2CSCCN1 [C3-X34-L6]
103.7 | 93.3 | O=C1CSCCC[C@H](NC(=O)c2ccc(Cl)s2)C(=O)N[C@@H](Cc2ccc(Cl)cc2)C(=O)N2CCC[C@@H]2CC(=O)NCCSC1 [C3-X34-L7]

Source: paper PMC11062899, “De novo development of small cyclic peptides that are orally bioavailable” (Nature Chemical Biology, 2023)
